Article PMC6697720, “Saturation of acyl chains converts cardiolipin from an antagonist to an activator of Toll-like receptor-4” (Cellular and Molecular Life Sciences: CMLS, 2019)

Biological target: T1, murine TLR4, MD2, and CD14 (Mus musculus, UniProt Q9JHF9+Q9QUK6)
T1 construct: expressed in transfected cells; host or cells: HEK293 (ATCC CRL1573), transient transfection with jetPEI
T1 sequence (Q9QUK6 26-835): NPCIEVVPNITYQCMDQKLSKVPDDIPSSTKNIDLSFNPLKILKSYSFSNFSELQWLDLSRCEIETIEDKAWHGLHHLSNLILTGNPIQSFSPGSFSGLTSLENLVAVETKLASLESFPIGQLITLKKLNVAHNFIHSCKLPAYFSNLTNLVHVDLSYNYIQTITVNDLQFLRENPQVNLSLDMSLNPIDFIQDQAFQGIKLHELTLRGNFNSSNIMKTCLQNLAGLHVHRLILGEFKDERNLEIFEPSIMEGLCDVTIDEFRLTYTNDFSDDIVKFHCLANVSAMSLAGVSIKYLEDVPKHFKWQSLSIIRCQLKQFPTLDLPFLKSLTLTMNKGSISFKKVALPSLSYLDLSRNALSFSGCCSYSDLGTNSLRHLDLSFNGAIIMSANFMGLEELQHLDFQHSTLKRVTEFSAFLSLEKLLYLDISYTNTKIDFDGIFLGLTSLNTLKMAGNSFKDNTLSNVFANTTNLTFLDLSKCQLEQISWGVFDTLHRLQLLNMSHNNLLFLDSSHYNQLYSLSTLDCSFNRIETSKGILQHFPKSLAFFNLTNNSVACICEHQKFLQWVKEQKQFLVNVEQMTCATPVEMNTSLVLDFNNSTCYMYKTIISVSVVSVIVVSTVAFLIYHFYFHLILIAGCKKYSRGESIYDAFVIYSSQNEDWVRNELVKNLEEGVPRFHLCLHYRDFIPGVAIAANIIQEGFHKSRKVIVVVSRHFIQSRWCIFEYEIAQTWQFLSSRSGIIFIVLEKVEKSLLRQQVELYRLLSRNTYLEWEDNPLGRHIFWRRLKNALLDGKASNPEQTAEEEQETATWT
T1 sequence (Q9JHF9 19-160): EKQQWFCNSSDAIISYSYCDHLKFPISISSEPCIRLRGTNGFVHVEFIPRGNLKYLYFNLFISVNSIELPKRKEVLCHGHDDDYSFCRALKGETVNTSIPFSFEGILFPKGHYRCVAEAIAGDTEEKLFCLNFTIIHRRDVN
Assay: NF-κB luciferase reporter activation by CLs in HEK293 cells transfected with murine TLR4, MD2 and CD14
Assay type: cell-based
Details: 6 h incubation
Experimental: Cells were seeded at 4 × 10^4 cells/mL in 96-well plates (200 μL/well) and transiently transfected 4 days later. Expression vectors containing an NF-κB transcription reporter vector-encoding firefly luciferase (10 ng/well pNF-κB-luc from Clontech), and a constitutively active reporter vector-encoding Renilla luciferase (5 ng/well phRG-TK; Promega), together with empty vector (pcDNA3.1 from Invitrogen Cat. N. V79020) and cDNA encoding human membrane CD14 (3 ng/well) and human or murine TLR4 and MD2 (3 ng/well) were mixed with jetPEI (Polyplus transfection Cat.N. 101-10N) and incubated with cells according to the manufacturer’s instructions.
After treatment supernatants were discarded, cells were washed with PBS and lysed with passive lysis buffer (Promega Cat.N. E1941). Luciferase and Renilla activity on cell lysates were quantified on a BioTek Synergy HT microplate reader using home-made luciferase reagent (20 mM Tricine, 2.67 mM MgSO4·7H2O, 0.265 mM (MgCO3)4Mg(OH)2·5H2O, 0.1 mM EDTA, 33.3 mM DTT, 530 μM ATP, 270 μM Acetyl Coenzyme A (Lithium salt), 470 μM luciferin (Biosynth), pH 7.8, diluted two times in water before use), or coelenterazine (Biosynth) dissolved in ethanol at 1 mg/mL and diluted 500 times in PBS before use as previously described. […]

activation of murine TLR4 (NF-κB): agonist
Structure (SMILES): CCCCCCCCCCCCCC(=O)OC[C@H](COP(=O)(O)OCC(O)COP(=O)(O)OC[C@@H](COC(=O)CCCCCCCCCCCCC)OC(=O)CCCCCCCCCCCCC)OC(=O)CCCCCCCCCCCCC (stereo partly shown) [C14:0 CL]
